From ChEMBL document CHEMBL5050844 (2019)

What was measured:
[1] = biological target: E3 ubiquitin-protein ligase CBL-B (Homo sapiens, UniProt Q13191); assay: Inhibition of N-terminal Avi-tagged human CBL-B (36 to 427 residues) incubated with 60 nM Src kinase for 1.5 hrs followed by incubation with fluorescently labeled UbcH5B-Ub for 1 hr and measured by TR-FRET assay; format: single protein
[2] = Induction of anti-CD3/CD28 antibodies-stimulated human T cell activation at 4 uM assessed fold increase in IL-2 secretion measured by ELISA assay; format: functional, T cell line
[3] = Induction of anti-CD3/CD28 antibodies-stimulated human T cell activation at 1 uM assessed fold increase in IL-2 secretion measured by ELISA assay; format: functional, T cell line
[4] = Induction of anti-CD3/CD28 antibodies-stimulated human T cell activation at 0.3 uM assessed fold increase in IL-2 secretion measured by ELISA assay; format: functional, T cell line
[5] = Induction of anti-CD3 antibodies-stimulated human T cell activation at 8 uM assessed fold increase in IL-2 secretion measured by ELISA assay; format: functional, T cell line; also: reference of the scale not given here
[6] = Induction of anti-CD3 antibodies-stimulated human T cell activation at 1 uM assessed fold increase in IL-2 secretion measured by ELISA assay; format: functional, T cell line; also: reference of the scale not given here
[7] = Induction of anti-CD3/CD28 antibodies-stimulated human T cell activation at 4 uM assessed fold increase in CD25 expression measured by ELISA assay; format: functional, T cell line
[8] = Induction of anti-CD3/CD28 antibodies-stimulated human T cell activation at 1 uM assessed fold increase in CD25 expression measured by ELISA assay; format: functional, T cell line
[9] = Induction of anti-CD3/CD28 antibodies-stimulated human T cell activation at 0.3 uM assessed fold increase in CD25 expression measured by ELISA assay; format: functional, T cell line
[10] = Induction of anti-CD3 antibodies-stimulated human T cell activation at 8 uM assessed fold increase in CD25 expression measured by ELISA assay; format: functional, T cell line; also: reference of the scale not given here
[11] = Induction of anti-CD3 antibodies-stimulated human T cell activation at 1 uM assessed fold increase in CD25 expression measured by ELISA assay; format: functional, T cell line; also: reference of the scale not given here

Chain of E3 ubiquitin-protein ligase CBL-B (Q13191 whole entry, the tested form may be a part): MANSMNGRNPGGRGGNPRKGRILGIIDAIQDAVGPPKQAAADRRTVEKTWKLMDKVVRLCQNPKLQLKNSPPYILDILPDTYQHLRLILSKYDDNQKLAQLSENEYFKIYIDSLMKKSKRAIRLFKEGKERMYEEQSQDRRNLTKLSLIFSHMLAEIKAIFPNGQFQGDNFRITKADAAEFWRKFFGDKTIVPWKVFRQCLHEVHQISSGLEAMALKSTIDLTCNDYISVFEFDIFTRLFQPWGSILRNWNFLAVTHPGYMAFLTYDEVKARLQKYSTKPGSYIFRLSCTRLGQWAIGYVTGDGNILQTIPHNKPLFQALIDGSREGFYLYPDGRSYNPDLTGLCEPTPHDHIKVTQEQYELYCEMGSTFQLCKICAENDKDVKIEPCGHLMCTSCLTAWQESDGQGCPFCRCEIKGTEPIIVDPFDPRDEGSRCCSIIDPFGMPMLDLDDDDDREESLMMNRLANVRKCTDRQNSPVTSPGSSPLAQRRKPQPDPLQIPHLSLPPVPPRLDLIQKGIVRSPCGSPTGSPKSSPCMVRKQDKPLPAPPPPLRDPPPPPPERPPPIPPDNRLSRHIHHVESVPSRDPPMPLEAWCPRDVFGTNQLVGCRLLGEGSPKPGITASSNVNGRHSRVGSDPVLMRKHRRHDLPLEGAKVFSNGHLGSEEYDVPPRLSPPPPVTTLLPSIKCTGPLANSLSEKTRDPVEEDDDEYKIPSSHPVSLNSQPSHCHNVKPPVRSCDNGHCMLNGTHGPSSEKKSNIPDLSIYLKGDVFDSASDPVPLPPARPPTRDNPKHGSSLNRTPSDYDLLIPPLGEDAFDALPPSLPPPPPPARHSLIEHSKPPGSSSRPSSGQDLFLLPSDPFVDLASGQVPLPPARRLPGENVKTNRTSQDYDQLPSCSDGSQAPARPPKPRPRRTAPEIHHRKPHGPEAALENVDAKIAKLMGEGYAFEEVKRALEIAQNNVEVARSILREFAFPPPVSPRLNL

SMILES	IC50 [1]	fold change (FC) [2]	fold change (FC) [3]	fold change (FC) [4]	fold change (FC) [5]	fold change (FC) [6]	fold change (FC) [7]	fold change (FC) [8]	fold change (FC) [9]	fold change (FC) [10]	fold change (FC) [11]
C[C@@H](c1cc2c(c(C(F)(F)F)c1)CN(c1cccc(C3(Cc4nncn4C)COC3)c1)C2=O)N1CCC(F)(F)C1	< 100 nM	>=7.5	>=7.5	2.51	>=0.201	0.151	1.31	1.31	1.31	>=1.001	>=1.001
C[C@H](Cc1nncn1C)c1cccc(N2Cc3c(cc(C(=O)N4CC(O)C4)cc3C(F)(F)F)C2=O)c1	< 100 nM	>=7.5	2.51	1.01	0.151	0.051	1.31	1.01	1.01	>=1.001	0.801
Cn1cnnc1CC1(c2cccc(N3Cc4c(cc(CN5CC(C)(C#N)C5)cc4C(F)(F)F)C3=O)c2)COC1	< 100 nM	>=7.5	>=7.5	2.51	0.051	0.151	1.51	1.31	1.01	<=0.6	0.601
CC(c1cc2c(c(C(F)(F)F)c1)CN(c1cccc([C@H]3C[C@H]3c3nncn3C)c1)C2=O)N1CC[C@H](F)C1 (some centres undefined)	< 100 nM	>=7.5	>=7.5	2.51	>=0.201	>=0.201	1.51	1.51	1.31	>=1.001	>=1.001
Cn1cnnc1CC1(c2cccc(NC(=O)c3cc(C4CC4)nc(C4CC4)n3)c2)COC1	< 100 nM	>=7.5	>=7.5	2.51	>=0.201	0.151	1.31	1.01	1.01	>=1.001	>=1.001
Cn1cnnc1CC(C)(C)c1cccc(NC(=O)c2cc(C(=O)N3CC[C@H](O)C3)cc(C(F)(F)F)n2)c1	< 100 nM	5	2.51	1.01	>=0.201	0.101	1.01	1.01	1.01	>=1.001	0.801
C[C@H](Cc1nncn1C)c1cccc(N2Cc3c(cc([C@@H](C)N4CC(O)C4)cc3C(F)(F)F)C2=O)c1	< 100 nM	>=7.5	5	2.51	>=0.201	>=0.201	1.31	1.31	1.01	>=1.001	0.801
C[C@H](Cc1nocc1C(F)(F)F)c1cccc(N2Cc3c(cc(C(=O)N4CC[C@H](F)C4)cc3C(F)(F)F)C2=O)c1	≤ 300 nM	2.51	1.01	1.01	0.101	<=0.05	1.31	1.01	1.01	>=1.001	0.601
Cc1cc(C(=O)Nc2cccc([C@H](C)Cc3nocc3C)c2)nc(C2CC2)n1	< 100 nM	5	2.51	1.01	>=0.201	0.051	1.01	1.01	1.01	>=1.001	0.801
C[C@@H](c1cccc(N2Cc3c(cccc3C(F)(F)F)C2=O)c1)[C@@H](F)c1nncn1C (single isomer, unassigned)	< 100 nM	2.51	1.01	1.01	>=0.201	0.051	1.01	1.01	1.01	>=1.001	0.601
Cc1cc(C(=O)Nc2cccc([C@H](C)Sc3nncn3C)c2)nc(C(F)(F)F)c1	< 100 nM	2.51	1.01	1.01	0.101	<=0.05	1.01	1.01	1.01	>=1.001	0.601
C[C@H](Cc1nncn1C)c1cccc(NC(=O)c2cccc(C(C)(C)C)n2)c1	< 100 nM	2.51	2.51	1.01	>=0.201	0.051	1.01	1.01	1.01	>=1.001	0.801
C[C@H](Cc1nncn1C)c1cccc(N2Cc3c(cc([C@H](C)N4CC[C@H](F)C4)cc3C(F)(F)F)C2=O)c1	< 100 nM	>=7.5	>=7.5	>=7.5	>=0.201	>=0.201	1.31	1.31	1.31	>=1.001	>=1.001
C[C@@H]1CN(C)CCN1c1cc2c(c(C(F)(F)F)c1)CN(c1cccc([C@@](C)(F)C(F)(F)c3nncn3C)c1)C2=O	< 100 nM	2.51	1.01	1.01	0.101	<=0.05	1.31	1.01	1.01	>=1.001	0.801
Cn1cnnc1[C@H](F)C(C)(F)c1cccc(N2Cc3c(cccc3C(F)(F)F)C2=O)c1 (single isomer, unassigned)	< 100 nM	1.01	1.01	1.01	0.101	<=0.05	1.01	1.01	1.01	0.801	0.601
CC(=O)N1CCN(c2ccc3cnc(C(=O)Nc4cccc([C@H](C)Cc5nncn5C)c4)cc3c2)CC1.O=C(O)C(F)(F)F	< 100 nM	>=7.5	5	2.51	>=0.201	>=0.201	1.51	1.01	1.01	>=1.001	0.601
C[C@H](Cc1nncn1C)c1cccc(N2Cc3c(cc([C@H]4CCCNC4)cc3C(F)(F)F)C2=O)c1 (single isomer, unassigned)	< 100 nM	>=7.5	5	2.51	>=0.201	>=0.201	1.51	1.51	1.31	>=1.001	0.801
Cn1cnnc1C(F)(F)[C@](C)(F)c1cccc(N2Cc3c(cc(CN4C[C@@H](F)[C@@H](F)C4)cc3C(F)(F)F)C2=O)c1	< 100 nM	>=7.5	5	2.51	>=0.201	0.151	1.51	1.31	1.31	>=1.001	>=1.001
C[C@H](Cc1nncn1C)c1cccc(N2Cc3c(cc(C(C)(C)O)cc3C(F)(F)F)C2=O)c1	< 100 nM	5	2.51	>=7.5	0.151	0.101	1.31	1.01	>=1.76	0.801	>=1.001
